Measured values taken from the NIST ThermoML archive (doi:10.1016/j.jct.2019.03.040).

Legend:
[1] = molar heat capacity at constant pressure; settings: 101.33 kPa, Liquid, Small sample (50 mg) DSC
[2] = Liquid; for thermal diffusivity: 101.33 kPa, Laser flash apparatus

CCOC(=O)CCC(C)=O [ethyl levulinate]
Settings | Critical pressure [kPa] | Critical temperature [K] | molar heat capacity at constant pressure [J/K/mol] | thermal diffusivity [m2/s]
[1], 302.98 K | – | – | 275.22 | –
[1], 303.48 K | – | – | 275.79 | –
[1], 303.98 K | – | – | 276.51 | –
[1], 304.48 K | – | – | 276.37 | –
[1], 304.98 K | – | – | 275.65 | –
[1], 305.48 K | – | – | 276.08 | –
[1], 305.98 K | – | – | 275.65 | –
[1], 306.48 K | – | – | 276.08 | –
[1], 306.98 K | – | – | 276.95 | –
[1], 307.48 K | – | – | 277.24 | –
[1], 307.98 K | – | – | 277.67 | –
[1], 308.48 K | – | – | 277.52 | –
[1], 308.98 K | – | – | 277.38 | –
[1], 309.48 K | – | – | 277.67 | –
[1], 309.98 K | – | – | 277.96 | –
[1], 310.48 K | – | – | 278.53 | –
[1], 310.98 K | – | – | 278.82 | –
[1], 311.48 K | – | – | 277.96 | –
[1], 311.98 K | – | – | 278.24 | –
[1], 312.48 K | – | – | 277.24 | –
[1], 312.98 K | – | – | 278.53 | –
[1], 313.48 K | – | – | 278.82 | –
[1], 313.98 K | – | – | 279.25 | –
[1], 314.48 K | – | – | 279.25 | –
[1], 314.98 K | – | – | 279.25 | –
[1], 315.48 K | – | – | 278.53 | –
[1], 315.98 K | – | – | 279.25 | –
[1], 316.48 K | – | – | 278.68 | –
[1], 316.98 K | – | – | 278.97 | –
[1], 317.48 K | – | – | 279.69 | –
[1], 317.98 K | – | – | 279.4 | –
[1], 318.48 K | – | – | 279.83 | –
[1], 318.98 K | – | – | 279.69 | –
[1], 319.48 K | – | – | 279.83 | –
[1], 319.98 K | – | – | 279.54 | –
[1], 320.48 K | – | – | 280.55 | –
[1], 320.98 K | – | – | 280.98 | –
[1], 321.48 K | – | – | 280.7 | –
[1], 321.98 K | – | – | 279.97 | –
[1], 322.48 K | – | – | 280.55 | –
[1], 322.98 K | – | – | 280.84 | –
[1], 323.48 K | – | – | 281.42 | –
[1], 323.98 K | – | – | 281.13 | –
[1], 324.48 K | – | – | 281.42 | –
[1], 324.98 K | – | – | 281.56 | –
[1], 325.48 K | – | – | 281.27 | –
[1], 325.98 K | – | – | 281.99 | –
[1], 326.48 K | – | – | 282.57 | –
[1], 326.98 K | – | – | 282.14 | –
[1], 327.48 K | – | – | 282.43 | –
[1], 327.98 K | – | – | 282.57 | –
[1], 328.48 K | – | – | 283.29 | –
[1], 328.98 K | – | – | 283.15 | –
[1], 329.48 K | – | – | 282.86 | –
[1], 329.98 K | – | – | 283.29 | –
[1], 330.48 K | – | – | 283.87 | –
[1], 330.98 K | – | – | 284.01 | –
[1], 331.48 K | – | – | 284.01 | –
[1], 331.98 K | – | – | 284.16 | –
[1], 332.48 K | – | – | 284.44 | –
[1], 332.98 K | – | – | 284.16 | –
[1], 333.48 K | – | – | 284.3 | –
[1], 333.98 K | – | – | 284.01 | –
[1], 334.48 K | – | – | 284.88 | –
[1], 334.98 K | – | – | 285.74 | –
[1], 335.48 K | – | – | 285.6 | –
[1], 335.98 K | – | – | 285.89 | –
[1], 336.48 K | – | – | 285.6 | –
[1], 336.98 K | – | – | 285.89 | –
[1], 337.48 K | – | – | 285.74 | –
[1], 337.98 K | – | – | 285.6 | –
[1], 338.48 K | – | – | 286.17 | –
[1], 338.98 K | – | – | 286.32 | –
[1], 339.48 K | – | – | 286.32 | –
[1], 339.98 K | – | – | 286.03 | –
[1], 340.48 K | – | – | 286.32 | –
[1], 340.98 K | – | – | 285.74 | –
[1], 341.48 K | – | – | 286.17 | –
[1], 341.98 K | – | – | 286.46 | –
[1], 342.48 K | – | – | 286.75 | –
[1], 342.98 K | – | – | 285.89 | –
[1], 343.48 K | – | – | 286.61 | –
[1], 343.98 K | – | – | 286.9 | –
[1], 344.48 K | – | – | 287.76 | –
[1], 344.98 K | – | – | 288.34 | –
[1], 345.48 K | – | – | 287.47 | –
[1], 345.98 K | – | – | 288.63 | –
[1], 346.48 K | – | – | 288.19 | –
[1], 346.98 K | – | – | 287.9 | –
[1], 347.48 K | – | – | 288.05 | –
[1], 347.98 K | – | – | 288.48 | –
[1], 348.48 K | – | – | 288.48 | –
[1], 348.98 K | – | – | 288.19 | –
[1], 349.48 K | – | – | 289.2 | –
[1], 349.98 K | – | – | 289.2 | –
[1], 350.48 K | – | – | 289.35 | –
[1], 350.98 K | – | – | 289.2 | –
[1], 351.48 K | – | – | 289.63 | –
[1], 351.98 K | – | – | 289.2 | –
[1], 352.48 K | – | – | 289.78 | –
[1], 352.98 K | – | – | 290.5 | –
[1], 353.48 K | – | – | 289.78 | –
[1], 353.98 K | – | – | 290.36 | –
[1], 354.48 K | – | – | 290.21 | –
[1], 354.98 K | – | – | 289.92 | –
[1], 355.48 K | – | – | 289.92 | –
[1], 355.98 K | – | – | 289.78 | –
[1], 356.48 K | – | – | 289.92 | –
[1], 356.98 K | – | – | 291.08 | –
[1], 357.48 K | – | – | 290.93 | –
[1], 357.98 K | – | – | 290.64 | –
[1], 358.48 K | – | – | 290.93 | –
[1], 358.98 K | – | – | 290.79 | –
[1], 359.48 K | – | – | 291.51 | –
[1], 359.98 K | – | – | 292.09 | –
[1], 360.48 K | – | – | 291.65 | –
[1], 360.98 K | – | – | 292.09 | –
[1], 361.48 K | – | – | 292.52 | –
[1], 361.98 K | – | – | 291.51 | –
[1], 362.48 K | – | – | 292.66 | –
[1], 362.98 K | – | – | 292.81 | –
[1], 363.48 K | – | – | 293.82 | –
[1], 363.98 K | – | – | 293.53 | –
[1], 364.48 K | – | – | 293.67 | –
[1], 364.98 K | – | – | 294.25 | –
[1], 365.48 K | – | – | 294.39 | –
[1], 365.98 K | – | – | 295.4 | –
[1], 366.48 K | – | – | 294.54 | –
[1], 366.98 K | – | – | 295.83 | –
[1], 367.48 K | – | – | 295.55 | –
[1], 367.98 K | – | – | 295.98 | –
[1], 368.48 K | – | – | 295.83 | –
[1], 368.98 K | – | – | 296.84 | –
[1], 369.48 K | – | – | 296.84 | –
[1], 369.98 K | – | – | 296.27 | –
[1], 370.48 K | – | – | 296.99 | –
[1], 370.98 K | – | – | 296.27 | –
[1], 371.48 K | – | – | 296.55 | –
[1], 371.98 K | – | – | 296.84 | –
[1], 372.48 K | – | – | 296.84 | –
[1], 372.98 K | – | – | 296.84 | –
[1], 373.48 K | – | – | 296.99 | –
[1], 373.98 K | – | – | 297.13 | –
[2], 303.15 K | – | – | – | 7.9e-08
[2], 313.15 K | – | – | – | 7.8e-08
[2], 323.15 K | – | – | – | 7.7e-08
[2], 333.15 K | – | – | – | 7.6e-08
[2], 343.15 K | – | – | – | 7.5e-08
[2], 353.15 K | – | – | – | 7.4e-08
[2], 363.15 K | – | – | – | 7.25e-08
[2], 373.15 K | – | – | – | 7.15e-08
[2], Resistive pulse heating | 2970 | 669 | – | –
